# Legend:
# PHD1 (EGLN2) = PHD1 (EGLN2) (Homo sapiens (Human), UniProt Q96KS0); experiment: HIF-PH assay (14CO2 capture), PHD1 enzyme inhibition; assay type: biochemical; details: for IC50: individual measurement, read-out: IC50 (μM) PHD1
# Excerpt: (§1) Ketoglutaric acid α-[1-^14C]-sodium salt, alpha-ketoglutaric acid sodium salt, and HPLC purified peptide may be obtained from commercial sources, e.g., Perkin-Elmer (Wellesley Mass.), Sigma-Aldrich, and SynPep Corp. (Dublin Calif.), respectively. Peptides for use in the assay may be fragments of HIFα as described above or as disclosed in International Publication WO 2005/118836, incorporated by reference herein. HIF-pH, e.g., PHD1 (EGLN2) or PHD2 (EGLN1), can be expressed in, e.g., insect Hi5 cells, and partially purified, e.g., through a SP ion exchange chromatography column. Enzyme activity is determined by capturing ^14CO2 using an assay described by Kivirikko and Myllyla (1982, Methods Enzymol. 82:245-304). Assay reactions contain 50 mM HEPES (pH 7.4), 100 μM α-ketoglutaric acid sodium salt, 0.30 mCi/mL ketoglutaric acid α-[1-^14C]-sodium salt, 40 μM FeSO4, 1 mM ascorbate, 1541.8 units/mL Catalase, with or without 50 μM peptide substrate and various concentrations of compound of the invention. Reactions are initiated by addition of HIF-PH enzyme.
# (§2) The peptide-dependent percent turnover is calculated by subtracting percent turnover in the absence of peptide from percent turnover in the presence of substrate peptide. Percent inhibition and IC50 are calculated using peptide-dependent percent turnover at given inhibitor concentrations. Calculation of IC50 values for each inhibitor is conducted using GraFit software (Erithacus Software Ltd., Surrey UK).
# (§3) The PHD2/PHD1 is the ratio of the IC50 of the compound for each enzyme.
# PHD2 (EGLN1) = PHD2 (EGLN1) (Homo sapiens (Human), UniProt Q9GZT9); experiment: HIF-PH assay (14CO2 capture), PHD2 enzyme inhibition; assay type: biochemical; details: Table 1; individual measurement; read-out: IC50 (μM) PHD2
# Excerpt: as §1, §2, §3
# [1] = Table 1, ratio of the IC50 of the compound for each enzyme
# Chain of PHD1 (EGLN2) (Q96KS0 whole entry, the tested form may be a part): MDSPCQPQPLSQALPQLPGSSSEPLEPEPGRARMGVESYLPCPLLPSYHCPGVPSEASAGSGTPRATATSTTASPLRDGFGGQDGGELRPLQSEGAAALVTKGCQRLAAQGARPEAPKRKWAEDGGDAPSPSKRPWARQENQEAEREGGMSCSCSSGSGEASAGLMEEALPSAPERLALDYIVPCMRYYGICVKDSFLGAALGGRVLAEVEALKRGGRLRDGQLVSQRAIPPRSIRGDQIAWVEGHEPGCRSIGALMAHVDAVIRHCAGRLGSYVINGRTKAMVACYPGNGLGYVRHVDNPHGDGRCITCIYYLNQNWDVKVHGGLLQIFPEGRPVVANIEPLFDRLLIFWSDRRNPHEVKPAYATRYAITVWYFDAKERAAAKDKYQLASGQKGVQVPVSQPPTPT
# Chain of PHD2 (EGLN1) (Q9GZT9 whole entry): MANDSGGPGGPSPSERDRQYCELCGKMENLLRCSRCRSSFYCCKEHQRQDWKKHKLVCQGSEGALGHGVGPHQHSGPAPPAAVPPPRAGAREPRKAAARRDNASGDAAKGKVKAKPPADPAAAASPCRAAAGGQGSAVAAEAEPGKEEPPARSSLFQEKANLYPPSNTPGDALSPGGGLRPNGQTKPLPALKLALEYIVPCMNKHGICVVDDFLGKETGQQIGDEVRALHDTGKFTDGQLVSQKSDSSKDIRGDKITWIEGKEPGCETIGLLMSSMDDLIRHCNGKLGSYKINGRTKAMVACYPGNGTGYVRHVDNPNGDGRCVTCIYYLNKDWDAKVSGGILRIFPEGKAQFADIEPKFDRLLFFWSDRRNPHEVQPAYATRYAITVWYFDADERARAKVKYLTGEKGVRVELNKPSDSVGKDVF
Compound,IC50 (PHD1 (EGLN2); Table 1) [µM],PHD2/PHD1 (PHD1 (EGLN2); [1]),IC50 (PHD2 (EGLN1)) [µM],"PHD2/PHD1 (PHD1 (EGLN2); Table 2 comparative data, IC50 PHD2/IC50 PHD1)"
"COc1ccc(Oc2ccc3c(O)c(C(=O)NC(C)(C)CC(=O)O)nc(C#N)c3c2)cc1 [Compound 21, 3{-[1-Cyano-4-hydroxy-7-(4-methoxy-phenoxy)-isoquinoline-3-carbonyl]-amino}-3-methyl-butyric acid]",0.24,39,9.4,–
"CC(C)(CNC(=O)c1nc(C#N)c2cc(Oc3c(F)cccc3F)ccc2c1O)C(=O)O [Compound 22, 3-{[1-Cyano-7-(2,6-difluoro-phenoxy)-4-hydroxy-isoquinoline-3-carbonyl]-amino}-2,2-dimethyl-propionic acid]",0.93,16,15.1,–
"CC(C)(CNC(=O)c1ncc2cc(Oc3ccc(Cl)c(F)c3)ccc2c1O)C(=O)O [Compound 23, 3-{[7-(4-Chloro-3-fluoro-phenoxy)-4-hydroxy-isoquinoline-3-carbonyl]-amino}-2,2-dimethyl-propionic acid]",2.77,5,12.7,–
"O=C(O)CCNC(=O)c1ncc2cc(Oc3cccnc3)ccc2c1O [Compound 24, 3-{[4-Hydroxy-7-(pyridin-3-yloxy)-isoquinoline-3-carbonyl]-amino}-propionic acid]",2.31,10,23.3,10
"O=C(O)CCNC(=O)c1ncc2cc(Oc3ccccn3)ccc2c1O [Compound 25, 3-{[4-Hydroxy-7-(pyridin-2-yloxy)-isoquinoline-3-carbonyl]-amino}-propionic acid]",4.57,10,44.6,–
"N#Cc1nc(C(=O)NCC2(C(=O)O)CCC2)c(O)c2ccc(Oc3c(F)cccc3F)cc12 [Compound 26, 1-({[1-Cyano-7-(2,6-difluoro-phenoxy)-4-hydroxy-isoquinoline-3-carbonyl]-amino}-methyl)-cyclobutanecarboxylic acid]",0.7,8,5.43,–
"CC(C)(CNC(=O)c1nc(C#N)c2cc(Oc3cccnc3)ccc2c1O)C(=O)O [Compound 27, 3{-[1-Cyano-4-hydroxy-7-(pyridin-3-yloxy)-isoquinoline-3-carbonyl]-amino}-2,2-dimethyl-propionic acid]",3.27,10,33.3,–
"N#Cc1nc(C(=O)NCC2(C(=O)O)CCC2)c(O)c2ccc(Oc3cccnc3)cc12 [Compound 28, 1-({[1-Cyano-4-hydroxy-7-(pyridin-3-yloxy)-isoquinoline-3-carbonyl]-amino}-methyl)-cyclobutanecarboxylic acid]",1.3,5,7.15,–
"N#Cc1nc(C(=O)NCC2(C(=O)O)CCS(=O)(=O)CC2)c(O)c2ccc(Oc3ccccc3)cc12 [Compound 29, 4-{[(1-Cyano-4-hydroxy-7-phenoxy-isoquinoline-3-carbonyl)-amino]-methyl}-1,1-dioxo-hexahydro-1λ^6-thiopyran-4-carboxylic acid]",3.76,9.9,37.3,–
"N#Cc1nc(C(=O)NCC2(C(=O)O)CC[S+]([O-])CC2)c(O)c2ccc(Oc3ccccc3)cc12 (stereo not shown) [Compound 30, 4-{[(1-Cyano-4-hydroxy-7-phenoxy-isoquinoline-3-carbonyl)-amino]-methyl}-1-oxo-hexahydro-1λ^4-thiopyran-4-carboxylic acid]",25.1,8,200,–
"CC(C)(CNC(=O)c1nc(C#N)c2cc(Oc3cc(F)ccc3Cl)ccc2c1O)C(=O)O [Compound 31, 3-{[7-(2-Chloro-5-fluoro-phenoxy)-1-cyano-4-hydroxy-isoquinoline-3-carbonyl]-amino}-2,2-dimethyl-propionic acid]",0.53,8,4.2,–
"N#Cc1nc(C(=O)NCC(CC(=O)O)c2ccc(Cl)cc2)c(O)c2ccc(Oc3ccccc3)cc12 (stereo not shown) [Compound 34, 3-(4-Chloro-phenyl)-4-[(1-cyano-4-hydroxy-7-phenoxy-isoquinoline-3-carbonyl)-amino]-butyric acid]",2.55,12,30.9,–
"N#Cc1nc(C(=O)NC[C@@H](O)CC(=O)O)c(O)c2ccc(Oc3ccccc3)cc12 [Compound 35, (S)-4-(1-Cyano-4-hydroxy-7-phenoxyisoquinoline-3-carboxamido)-3-hydroxybutanoic acid]",0.23,12,2.83,–
"N#Cc1nc(C(=O)NCC2(CC(=O)O)CCCCC2)c(O)c2ccc(Oc3ccccc3)cc12 [Compound 36, (1-{[(1-Cyano-4-hydroxy-7-phenoxy-isoquinoline-3-carbonyl)-amino]-methyl}-cyclohexyl)-acetic acid]",5.93,10,56.6,–
"N#Cc1nc(C(=O)N[C@@H](CO)CC(=O)O)c(O)c2ccc(Oc3ccccc3)cc12 [Compound 37, (R)-3-(1-Cyano-4-hydroxy-7-phenoxyisoquinoline-3-carboxamido)-4-hydroxybutanoic acid]",6.67,24,159,–
"CC(C)(CNC(=O)c1nc(C#N)c2cc(Oc3ccccc3Cl)ccc2c1O)C(=O)O [Compound 38, 3-(7-(2-Chlorophenoxy)-1-cyano-4-hydroxyisoquinoline-3-carboxamido)-2,2-dimethylpropanoic acid]",0.24,20,4.79,–
"CC(C)(CNC(=O)c1nc(C#N)c2cc(Oc3cccc(Cl)c3)ccc2c1O)C(=O)O [Compound 39, 3-{[7-(3-Chloro-phenoxy)-1-cyano-4-hydroxy-isoquinoline-3-carbonyl]-amino}-2,2-dimethyl-propionic acid]",0.18,11,1.97,–
"CC(C)(CNC(=O)c1nc(C#N)c2cc(Oc3ccc(Cl)cc3)ccc2c1O)C(=O)O [Compound 40, 3-{[7-(4-Chloro-phenoxy)-1-cyano-4-hydroxy-isoquinoline-3-carbonyl]-amino}-2,2-dimethyl-propionic acid]",0.3,13,4.01,–
"CC(C)(CNC(=O)c1nc(C#N)c2cc(Oc3ccccc3F)ccc2c1O)C(=O)O [Compound 41, 3{-[1-Cyano-7-(2-fluoro-phenoxy)-4-hydroxy-isoquinoline-3-carbonyl]-amino}-2,2-dimethyl-propionic acid]",0.55,17,9.56,–
"CC(C)(CNC(=O)c1nc(C#N)c2cc(Oc3cccc(F)c3)ccc2c1O)C(=O)O [Compound 42, 3-(1-Cyano-7-(3-fluorophenoxy)-4-hydroxyisoquinoline-3-carboxamido)-2,2-dimethylpropanoic acid]",0.36,11,3.95,–
"CC(C)(CNC(=O)c1nc(C#N)c2cc(Oc3cccc4ccccc34)ccc2c1O)C(=O)O [Compound 43, 3-(1-Cyano-4-hydroxy-7-(naphthalen-1-yloxy)isoquinoline-3-carboxamido)-2,2-dimethylpropanoic acid]",0.22,8,1.73,–
"Cc1ccc(Oc2ccc3c(O)c(C(=O)NCC(C)(C)C(=O)O)nc(C#N)c3c2)cc1 [Compound 44, 3-[(1-Cyano-4-hydroxy-7-p-tolyloxy-isoquinoline-3-carbonyl)-amino]-2,2-dimethyl-propionic acid]",0.28,14,3.9,–
"N#Cc1nc(C(=O)NCC[C@H](N)C(=O)O)c(O)c2ccc(Oc3ccccc3)cc12 [Compound 45, (S)-2-Amino-4-(1-cyano-4-hydroxy-7-phenoxyisoquinoline-3-carboxamido)butanoic acid]",1.41,26,36.7,–
"CC(C)(CCC(=O)O)NC(=O)c1nc(C#N)c2cc(Oc3ccccc3)ccc2c1O [Compound 46, 4-(1-Cyano-4-hydroxy-7-phenoxyisoquinoline-3-carboxamido)-4-methylpentanoic acid]",0.94,22,20.8,–
"N#Cc1nc(C(=O)N[C@@H](CC(=O)O)c2ccccc2)c(O)c2ccc(Oc3ccccc3)cc12 [Compound 47, (S)-3-[(1-Cyano-4-hydroxy-7-phenoxy-isoquinoline-3-carbonyl)-amino]-3-phenyl-propionic acid]",1.28,24,30.2,–
"N#Cc1nc(C(=O)N[C@H](CC(=O)O)c2ccccc2)c(O)c2ccc(Oc3ccccc3)cc12 [Compound 48, (R)-3-[(1-Cyano-4-hydroxy-7-phenoxy-isoquinoline-3-carbonyl)-amino]-3-phenyl-propionic acid]",5.42,9,50.1,–
